Earlier results, collected in patent US8324203B2, “Azadecalin glucocorticoid receptor modulators” (Corcept Therapeutics, Inc., priority 2004, dated 2012).

Columns and labels:
[1] = tested on: patients with Cushing's syndrome
GR = GR (Homo sapiens, UniProt P04150)
Sequence of GR (P04150 whole entry): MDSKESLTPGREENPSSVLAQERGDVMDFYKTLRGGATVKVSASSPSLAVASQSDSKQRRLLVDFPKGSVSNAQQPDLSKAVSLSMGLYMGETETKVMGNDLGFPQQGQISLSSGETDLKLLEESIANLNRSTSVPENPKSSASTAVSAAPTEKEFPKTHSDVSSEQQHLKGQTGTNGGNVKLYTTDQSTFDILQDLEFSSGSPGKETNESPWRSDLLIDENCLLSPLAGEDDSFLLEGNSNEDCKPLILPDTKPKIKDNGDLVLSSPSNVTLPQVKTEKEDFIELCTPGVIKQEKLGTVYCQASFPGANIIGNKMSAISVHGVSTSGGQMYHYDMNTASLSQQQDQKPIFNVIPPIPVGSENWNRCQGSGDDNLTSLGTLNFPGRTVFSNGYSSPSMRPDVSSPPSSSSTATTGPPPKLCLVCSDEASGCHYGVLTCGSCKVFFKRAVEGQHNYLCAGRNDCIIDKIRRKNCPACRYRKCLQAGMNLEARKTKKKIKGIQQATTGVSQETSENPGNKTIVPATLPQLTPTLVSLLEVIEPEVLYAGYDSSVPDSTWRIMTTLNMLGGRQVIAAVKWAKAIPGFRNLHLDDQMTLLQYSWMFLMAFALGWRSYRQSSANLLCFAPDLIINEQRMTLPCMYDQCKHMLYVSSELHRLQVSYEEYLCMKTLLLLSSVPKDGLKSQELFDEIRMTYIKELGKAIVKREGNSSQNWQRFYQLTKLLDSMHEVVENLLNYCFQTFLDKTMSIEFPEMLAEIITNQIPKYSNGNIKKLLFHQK

Which “effect on acute psychosis” value ([1]; 400 to 800 mg per day, severe Cushing Syndrome due to adrenal cancers and ectopic secretion of ACTH from lung cancer) does the source give for `CC#C[C@]1(O)CC[C@H]2[C@@H]3CCC4=CC(=O)CCC4=C3[C@@H](c3ccc(N(C)C)cc3)C[C@@]21C` [mifepristone] here?
The value was “useful in rapidly reversing acute psychosis”.

What about the “effect on patients' conditions, including psychiatric status” value ([1]; Cushing's syndrome patients) of the same molecule?
The value was “improved the patients' conditions”.

And the “anti-glucocorticoid activity in humans” value (GR)?
The value was “effective anti-glucocorticoid agent in humans”.
